In patent US9018206B2, “Carboxamide compounds and their use as calpain inhibitors” (AbbVie Deutschland GmbH & Co. KG, priority 2009, dated 2015):

Key:
Format in all cases: biochemical
[1] = biological target: T1, calpain-I isolated from human erythrocytes (Homo sapiens, UniProt P07384); experiment: Calpain I enzyme inhibition in vitro (kinetic fluorescence assay); settings: apparent Ki from IC50 (Cheng-Prussoff); 20 nM calpain-I, 100 μM Suc-Leu-Tyr-AMC, pH 7.3, room temperature
T1 construct: calpain-I—isolated from human erythrocytes; purchased Calbiochem 208713; host or cells: human erythrocytes (tissue-derived)
T1 sequence (P07384 1-714): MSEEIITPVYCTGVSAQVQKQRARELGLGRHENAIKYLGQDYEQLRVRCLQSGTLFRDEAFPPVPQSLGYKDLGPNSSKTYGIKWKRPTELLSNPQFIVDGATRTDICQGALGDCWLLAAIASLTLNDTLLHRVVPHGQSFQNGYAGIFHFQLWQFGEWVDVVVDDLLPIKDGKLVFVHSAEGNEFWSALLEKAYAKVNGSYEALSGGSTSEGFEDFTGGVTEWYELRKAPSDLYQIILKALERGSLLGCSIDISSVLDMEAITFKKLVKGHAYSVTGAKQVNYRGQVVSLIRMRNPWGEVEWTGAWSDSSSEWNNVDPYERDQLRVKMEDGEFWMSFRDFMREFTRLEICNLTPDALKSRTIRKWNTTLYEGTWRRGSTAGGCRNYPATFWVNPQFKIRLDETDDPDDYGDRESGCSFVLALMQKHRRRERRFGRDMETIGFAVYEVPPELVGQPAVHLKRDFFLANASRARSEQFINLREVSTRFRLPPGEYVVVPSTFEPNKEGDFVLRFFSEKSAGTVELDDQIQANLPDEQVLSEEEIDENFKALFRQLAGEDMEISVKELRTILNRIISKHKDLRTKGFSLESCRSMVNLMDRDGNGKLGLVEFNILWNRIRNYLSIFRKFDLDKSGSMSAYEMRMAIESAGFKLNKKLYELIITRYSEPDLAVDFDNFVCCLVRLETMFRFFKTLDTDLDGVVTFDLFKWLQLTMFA
T1 sequence (P04632 1-268 partner): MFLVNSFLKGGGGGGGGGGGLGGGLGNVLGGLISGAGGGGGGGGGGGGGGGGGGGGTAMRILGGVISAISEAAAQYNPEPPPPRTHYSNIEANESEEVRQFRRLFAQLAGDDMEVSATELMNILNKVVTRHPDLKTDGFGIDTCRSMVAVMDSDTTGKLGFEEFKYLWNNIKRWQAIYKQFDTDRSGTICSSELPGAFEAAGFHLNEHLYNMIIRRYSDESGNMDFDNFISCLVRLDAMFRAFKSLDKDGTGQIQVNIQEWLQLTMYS
Method in brief: (§1)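 Kinetic AMC fluorescence (ex 390/em 460 nm), room temperature. Calpain-I 20 nM, 100 μM Suc-Leu-Tyr-AMC, imidazole/CaCl2 pH 7.3; cathepsins B 0.25 nM/100 μM Z-Phe-Arg-AMC, K 3 nM/10 μM Z-Gly-Pro-Arg-AMC, S 0.5 nM/20 μM Z-Val-Val-Arg-AMC, each MES/EDTA/cysteine pH 6.0. Ki from IC50 via Cheng-Prusoff, averaging 2–4 curves.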

[2] = biological target: T2, cathepsin B isolated from human liver (Homo sapiens, UniProt P07858); experiment: Cathepsin B enzyme inhibition in vitro (kinetic fluorescence assay); settings: Ki(cathepsin B)/Ki(calpain) ratio
T2 construct: cathepsin B—isolated from human liver; purchased Calbiochem 219362; host or cells: human liver (tissue-derived)
Method in brief: as §1

[3] = biological target: T3, cathepsin K activated from recombinant human procathepsin K (Homo sapiens, UniProt P43235); experiment: Cathepsin K enzyme inhibition in vitro (kinetic fluorescence assay); settings: Ki(cathepsin K)/Ki(calpain) ratio
T3 construct: purchased Calbiochem 342001; host or cells: E. coli
T3 sequence (P43235 115-329): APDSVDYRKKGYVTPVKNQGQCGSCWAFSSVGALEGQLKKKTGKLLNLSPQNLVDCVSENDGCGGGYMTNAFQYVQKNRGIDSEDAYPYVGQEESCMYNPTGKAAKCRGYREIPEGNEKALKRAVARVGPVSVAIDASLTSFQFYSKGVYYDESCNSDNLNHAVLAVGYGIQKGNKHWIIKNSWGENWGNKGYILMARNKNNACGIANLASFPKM
Method in brief: as §1

[4] = biological target: T4, cathepsin L isolated from human liver (Homo sapiens, UniProt P07711); experiment: Cathepsin L enzyme inhibition in vitro (kinetic fluorescence assay); settings: Ki(cathepsin L)/Ki(calpain) ratio
T4 construct: cathepsin L—isolated from human liver; purchased Calbiochem 219402; host or cells: human liver (tissue-derived)
T4 sequence (P07711 114-333): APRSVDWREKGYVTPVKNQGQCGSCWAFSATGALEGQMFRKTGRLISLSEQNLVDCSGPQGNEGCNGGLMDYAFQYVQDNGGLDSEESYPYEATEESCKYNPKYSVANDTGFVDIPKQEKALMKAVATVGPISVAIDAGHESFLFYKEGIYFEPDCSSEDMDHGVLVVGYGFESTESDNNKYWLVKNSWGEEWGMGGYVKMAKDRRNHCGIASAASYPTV
Protocol: Testing for blockade of the corresponding enzymic activities was carried out by means of kinetic fluorescence assays (excitation 390 nm, emission 460 nm).
Apparent Ki values were calculated from the experimentally determined IC50 values by the Cheng-Prussoff relation assuming a reversible competitive enzyme inhibition. The Km values of the substrates used under the assay conditions indicated above were: 90 μM (Z-Phe-Arg-AMC, cathepsin B), 10 μM (Z-Gly-Pro-Arg-AMC, cathepsin K), 2 μM (Z-Phe-Arg-AMC, cathepsin L), and 30 μM (Z-Val-Val-Arg-AMC, cathepsin S).
The indicated Ki values are averages of the inhibition constants calculated on the basis of 2 to 4 independent dose-effect plots.
• 20 nM calpain-I—isolated from human erythrocytes (Calbiochem #208713), 100 μM Suc-Leu-Tyr-AMC (Bachem #I-1355) as substrate in buffer with 62 mM imidazole, 0.3 mM CaCl2, 0.10% CHAPS, 0.05% BSA, 1 mM DTT at pH 7.3 and room temperature. 1. Cathepsin B: • 0.25 nM cathepsin B—isolated from human liver (Calbiochem #219362), 100 μM Z-Phe-Arg-AMC (Bachem #I-1160) as substrate 50 mM MES, 2 mM EDTA, 0.05% Brij 35, 2.5 mM L-cysteine, pH 6.0, room temperature. 3. Cathepsin K: • 3 nM cathepsin K activated from recombinant human procathepsin K from E. coli (Calbiochem #342001), 10 μM Z-Gly-Pro-Arg-AMC (Biomol #P-142) as substrate in 50 mM MES, 2 mM EDTA, 0.05% Brij 35, 2.5 mM L-cysteine, pH 6.0, room temperature. 4. Cathepsin L: • 1 nM cathepsin L—isolated from human liver (Calbiochem #219402), 2 μM Z-Phe-Arg-AMC (Bachem #I-1160) as substrate in 50 mM MES, 2 mM EDTA, 0.05% Brij 35, 2.5 mM L-cysteine, pH 6.0, room temperature. 5. Cathepsin S: • 0.5 nM recombinant human cathepsin S from E. coli (Calbiochem #219343), 20 μM Z-Val-Val-Arg-AMC (Bachem #I-1540) as substrate in 50 mM MES, 2 mM EDTA, 0.05% Brij 35, 2.5 mM L-cysteine, pH 6.0, room temperature.

[5] = biological target: T5, recombinant human cathepsin S (Homo sapiens, UniProt P25774); experiment: Cathepsin S enzyme inhibition in vitro (kinetic fluorescence assay); settings: Ki(cathepsin S)/Ki(calpain) ratio
T5 construct: purchased Calbiochem 219343; host or cells: E. coli
T5 sequence (P25774 115-331): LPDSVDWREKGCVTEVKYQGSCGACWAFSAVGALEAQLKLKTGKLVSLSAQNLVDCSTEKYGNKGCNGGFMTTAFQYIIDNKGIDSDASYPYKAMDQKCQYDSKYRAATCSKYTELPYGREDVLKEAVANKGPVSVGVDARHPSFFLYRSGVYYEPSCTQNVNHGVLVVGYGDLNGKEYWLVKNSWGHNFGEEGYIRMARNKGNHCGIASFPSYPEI
Method in brief: as §1

Row | Ki [1] | Compound | Sel cat. B [2] | Sel cat. K [3] | Sel cat. L [4] | Sel cat. S [5]
1 | 50 to 100 nM | O=C(NCc1ccncc1)C(=O)C(Cc1ccccc1)NC(=O)[C@H]1CCC(=O)N1Cc1ccccc1 (mixture of isomers) [Example 63, (2R)-1-Benzyl-N-(3,4-dioxo-1-phenyl-4-(pyridin-4-ylmethylamino)butan-2-yl)-5-oxopyrrolidine-2-carboxamide] | +++ (Ki(cathepsin B)/Ki(calpain) ratio of >30) | +++ (Ki(cathepsin K)/Ki(calpain) ratio of >30) | +++ (Ki(cathepsin L)/Ki(calpain) ratio of >30) | +++ (Ki(cathepsin S)/Ki(calpain) ratio of >100)
2 | < 50 nM | O=C(NCc1ccc(F)cc1)C(=O)C(Cc1ccccc1)NC(=O)[C@H]1CCC(=O)N1Cc1ccccc1 (mixture of isomers) [Example 67, (2R)-1-Benzyl-N-(4-(4-fluorobenzylamino)-3,4-dioxo-1-phenylbutan-2-yl)-5-oxopyrrolidine-2-carboxamide] | +++ (Ki(cathepsin B)/Ki(calpain) ratio of >30) | +++ (Ki(cathepsin K)/Ki(calpain) ratio of >30) | +++ (Ki(cathepsin L)/Ki(calpain) ratio of >30) | +++ (Ki(cathepsin S)/Ki(calpain) ratio of >100)

Second part, the molecule before the results:

Row | Compound | Ki [1] | Sel cat. B [2] | Sel cat. K [3] | Sel cat. L [4] | Sel cat. S [5]
3 | O=C(Nc1ccccc1)C(=O)C(Cc1ccccc1)NC(=O)[C@H]1CCC(=O)N1Cc1ccccc1 (mixture of isomers) [Example 65, (2R)-1-Benzyl-N-(3,4-dioxo-1-phenyl-4-(phenylamino)butan-2-yl)-5-oxopyrrolidine-2-carboxamide] | 50 to 100 nM | +++ (Ki(cathepsin B)/Ki(calpain) ratio of >30) | +++ (Ki(cathepsin K)/Ki(calpain) ratio of >30) | +++ (Ki(cathepsin L)/Ki(calpain) ratio of >30) | +++ (Ki(cathepsin S)/Ki(calpain) ratio of >100)
4 | NC(=O)C(=O)C(Cc1ccccc1)NC(=O)[C@H]1CCC(=O)N1Cc1ccccc1 (mixture of isomers) [Example 1, (2R)—N-(4-Amino-3,4-dioxo-1-phenylbutan-2-yl)-1-benzyl-5-oxopyrrolidine-2-carboxamide] | < 50 nM | ++ (10<Ki(cathepsin B)/Ki(calpain)≦30) | ++ (10<Ki(cathepsin B)/Ki(calpain)≦30) | ++ (10<Ki(cathepsin B)/Ki(calpain)≦30) | +++ (Ki(cathepsin S)/Ki(calpain) ratio of >100)
5 | CCNC(=O)C(=O)C(Cc1ccccc1)NC(=O)[C@H]1CCC(=O)N1Cc1c(Cl)cccc1Cl (mixture of isomers) [Example 62, (2R)-1-(2,6-Dichlorobenzyl)-N-(4-(ethylamino)-3,4-dioxo-1-phenylbutan-2-yl)-5-oxopyrrolidine-2-carboxamide] | 100 to 600 nM | ++ (10<Ki(cathepsin B)/Ki(calpain)≦30) | ++ (10<Ki(cathepsin B)/Ki(calpain)≦30) | ++ (10<Ki(cathepsin B)/Ki(calpain)≦30) | ++ (30<Ki(cathepsin B)/Ki(calpain)≦100)
6 | O=C(NCc1cccs1)C(=O)C(Cc1ccccc1)NC(=O)[C@H]1CCC(=O)N1Cc1ccccc1 (mixture of isomers) [Example 60, (2R)-1-Benzyl-N-(3,4-dioxo-1-phenyl-4-(thiophen-2-ylmethylamino)butan-2-yl)-5-oxopyrrolidine-2-carboxamide] | 50 to 100 nM | +++ (Ki(cathepsin B)/Ki(calpain) ratio of >30) | +++ (Ki(cathepsin K)/Ki(calpain) ratio of >30) | ++ (10<Ki(cathepsin B)/Ki(calpain)≦30) | +++ (Ki(cathepsin S)/Ki(calpain) ratio of >100)
7 | O=C(NCc1ncco1)C(=O)C(Cc1ccccc1)NC(=O)[C@H]1CCC(=O)N1Cc1ccccc1 (stereo partly drawn) [Example 64, (2R)-1-Benzyl-N-(4-(oxazol-2-ylmethylamino)-3,4-dioxo-1-phenylbutan-2-yl)-5-oxopyrrolidine-2-carboxamide] | 100 to 600 nM | ++ (10<Ki(cathepsin B)/Ki(calpain)≦30) | +++ (Ki(cathepsin K)/Ki(calpain) ratio of >30) | ++ (10<Ki(cathepsin B)/Ki(calpain)≦30) | +++ (Ki(cathepsin S)/Ki(calpain) ratio of >100)
8 | NC(=O)C(=O)C(Cc1ccccc1)NC(=O)[C@H]1CCC(=O)N1Cc1ccccc1C(F)(F)F (stereo partly drawn) [Example 17, (2R)—N-(4-Amino-3,4-dioxo-1-phenylbutan-2-yl)-5-oxo-1-[2-(trifluoromethyl)benzyl]-pyrrolidine-2-carboxamide] | 50 to 100 nM | ++ (10<Ki(cathepsin B)/Ki(calpain)≦30) | +++ (Ki(cathepsin K)/Ki(calpain) ratio of >30) | +++ (Ki(cathepsin L)/Ki(calpain) ratio of >30) | +++ (Ki(cathepsin S)/Ki(calpain) ratio of >100)
